The subject of the test is PBMC from 32 patients with chronic HCV. Briefly: T cell proliferation assay ((3H)-thymidine incorporation, stimulation index) with PBMC of chronic HCV patients. Particulars: for number of patients that recognized the single peptide: 8 proliferative responders to pools 2 and/or 3 among 11 interferon-responder HCV patients; for LPR in αIFN responders (summary of Table 7): both αIFN responders tested; for lymphoproliferative response (LPR) to peptide pools and single peptides: IFN responder, LPR to pools 2 and/or 3. Format: cell-based, human. (In general: Dividing cells build labelled thymidine or BrdU into new DNA.)

The mark [1] stands for this setting: patient 618, pools 4 assays, single peptides 1 assay.
Setting [2] is: patient 620, αIFN non-responder (NR), week 20 of αIFN therapy.
Where [3] appears, read: patient 621, pools 4 assays, single peptides 1 assay.
[4] abbreviates: patient 626, pools 9 assays, single peptides 5 assays.
Where [5] appears, read: patient 626, αIFN responder (R), week 14 of αIFN therapy.
The mark [6] stands for this setting: patient 627, αIFN non-responder (NR), week 54 of αIFN therapy.
[7] abbreviates: patient 632, pools 8 assays, single peptides 4 assays.
Setting [8] is: patient 636, αIFN responder (R), week 28 of αIFN therapy.
The mark [9] stands for this setting: patient 637, αIFN non-responder (NR), week 45 of αIFN therapy.
The mark [10] stands for this setting: patient 639, pools 4 assays, single peptides 2 assays.
The mark [11] stands for this setting: patient 615, pools 2 assays, single peptides 1 assay.
Where [12] appears, read: patient 634, pools 2 assays, single peptides 1 assay.

Consider “GGAARALAHGVRVLEDGVNY (hepatitis C virus) [C25]”, for which the “number of patients that recognized the single peptide” value (from here on “number”) turned out to be 5 and the “LPR in αIFN responders (summary of Table 7)” value (“LPR in αIFN responders” for short) was “highest LPR”. Also, the “lymphoproliferative response (LPR) to peptide pools and single peptides” value (shortened to “lymphoproliferative response (LPR)”) under setting [1] is reported as “+ (significant when it induces SI's 3 in at least half of the assays performed)”. Moreover, the “stimulation index (SI), T-cell recognition” value (“stimulation index (SI)” below) under setting [2] is listed as “— (Only SI equal or greater than 3 are shown.)”. Also, the “lymphoproliferative response (LPR)” value under setting [3] is given as “+ (significant when it induces SI's 3 in at least half of the assays performed)”. The “lymphoproliferative response (LPR)” value under setting [4] is reported as “+ (significant when it induces SI's 3 in at least half of the assays performed)”. Further, under setting [5], the “stimulation index (SI)” value was found to be 6. The “stimulation index (SI)” value under setting [6] is recorded as “— (Only SI equal or greater than 3 are shown.)”. Also, the “lymphoproliferative response (LPR)” value under setting [7] is listed as “+ (significant when it induces SI's 3 in at least half of the assays performed)”. Besides, under setting [8], the “stimulation index (SI)” value came out at 9.7. The “stimulation index (SI)” value under setting [9] is “— (Only SI equal or greater than 3 are shown.)”. Further, the “lymphoproliferative response (LPR)” value under setting [10] is listed as “+ (significant when it induces SI's 3 in at least half of the assays performed)”.
Take “GRTWAQPGYPWPLYGNEGCG (hepatitis C virus) [C13]”: the “LPR in αIFN responders” value was “highest LPR”. The “stimulation index (SI)” value under setting [5] came out at 4.4. Besides, under setting [6], the “stimulation index (SI)” value is reported as “— (Only SI equal or greater than 3 are shown.)”. In addition, the “stimulation index (SI)” value under setting [8] was determined as 6.3. Besides, the “stimulation index (SI)” value under setting [9] was “— (Only SI equal or greater than 3 are shown.)”.
Turning to “LMGYIPLVGAPLGGAARALA (hepatitis C virus) [C23]”, the “number” value turned out to be 3. In addition, where the note is “patient 604, pools 2 assays, single peptides 1 assay”, the “lymphoproliferative response (LPR)” value is given as “+ (significant when it induces SI's 3 in at least half of the assays performed)”. In addition, the “lymphoproliferative response (LPR)” value under setting [11] was “+ (significant when it induces SI's 3 in at least half of the assays performed)”. For the same substance, the “stimulation index (SI)” value under setting [2] is 4.1. Besides, the “stimulation index (SI)” value under setting [5] is given as “— (Only SI equal or greater than 3 are shown.)”. For the same substance, the “stimulation index (SI)” value under setting [6] is given as “— (Only SI equal or greater than 3 are shown.)”. In addition, under setting [7], the “lymphoproliferative response (LPR)” value is listed as “+ (significant when it induces SI's 3 in at least half of the assays performed)”. The “stimulation index (SI)” value under setting [8] is given as “— (Only SI equal or greater than 3 are shown.)”. For the same substance, the “stimulation index (SI)” value under setting [9] is given as “— (Only SI equal or greater than 3 are shown.)”. For the same substance, the “LPR in αIFN non-responders (summary of Table 7)” value (two αIFN non-responders) is given as “high PLR”.
Consider LPGCSFSIFLLALLSCLTVP [C29], for which the “stimulation index (SI)” value is “— (Only SI equal or greater than 3 are shown.)” under setting [2]; “— (Only SI equal or greater than 3 are shown.)” under setting [5]; “— (Only SI equal or greater than 3 are shown.)” under setting [6]; “— (Only SI equal or greater than 3 are shown.)” under setting [8]; “— (Only SI equal or greater than 3 are shown.)” under setting [9].
Take “LYGNEGCGWAGWLLSPRGSR (hepatitis C virus) [C15]”: the “stimulation index (SI)” value is recorded as “— (Only SI equal or greater than 3 are shown.)” under setting [5], “— (Only SI equal or greater than 3 are shown.)” under setting [6], “— (Only SI equal or greater than 3 are shown.)” under setting [8] and “— (Only SI equal or greater than 3 are shown.)” under setting [9].
As to “PTDPRRRSRNLGKVIDTLTC (hepatitis C virus) [C19]”, the “number” value was found to be 3 and the “LPR in αIFN responders” value is “highest LPR”. The “stimulation index (SI)” value under setting [5] is on record as “— (Only SI equal or greater than 3 are shown.)”. Under setting [6], the “stimulation index (SI)” value is “— (Only SI equal or greater than 3 are shown.)”. Further, the “lymphoproliferative response (LPR)” value under setting [7] is reported as “+ (significant when it induces SI's 3 in at least half of the assays performed)”. The “lymphoproliferative response (LPR)” value under setting [12] was “+ (significant when it induces SI's 3 in at least half of the assays performed)”. Also, the “stimulation index (SI)” value under setting [8] is recorded as 7.1. For the same substance, the “stimulation index (SI)” value under setting [9] is listed as “— (Only SI equal or greater than 3 are shown.)”. Also, the “lymphoproliferative response (LPR)” value under setting [10] is on record as “+ (significant when it induces SI's 3 in at least half of the assays performed)”.
As to Tetanus toxoid [TT, reference compound], the “stimulation index (SI)” value came to 4.1 under setting [2]; 14.5 under setting [5]; 19.1 under setting [6]; 3.6 under setting [8]; 4.2 under setting [9].
As to “VLEDGVNYATGNLPGCSFSI (hepatitis C virus) [C27]”, the “number” value is on record as 6 and the “LPR in αIFN responders” value is “highest LPR”. Moreover, under setting [11], the “lymphoproliferative response (LPR)” value is on record as “+ (significant when it induces SI's 3 in at least half of the assays performed)”. Moreover, the “lymphoproliferative response (LPR)” value under setting [1] is recorded as “+ (significant when it induces SI's 3 in at least half of the assays performed)”. Under setting [2], the “stimulation index (SI)” value is on record as “— (Only SI equal or greater than 3 are shown.)”. In addition, under setting [3], the “lymphoproliferative response (LPR)” value was “+ (significant when it induces SI's 3 in at least half of the assays performed)”. For the same substance, the “lymphoproliferative response (LPR)” value under setting [4] was “+ (significant when it induces SI's 3 in at least half of the assays performed)”. Moreover, under setting [5], the “stimulation index (SI)” value is given as 8.2. Moreover, the “stimulation index (SI)” value under setting [6] is listed as “— (Only SI equal or greater than 3 are shown.)”. Moreover, the “lymphoproliferative response (LPR)” value under setting [7] was “+ (significant when it induces SI's 3 in at least half of the assays performed)”. Besides, the “lymphoproliferative response (LPR)” value under setting [12] is on record as “+ (significant when it induces SI's 3 in at least half of the assays performed)”. Moreover, under setting [8], the “stimulation index (SI)” value is 5.8. The “stimulation index (SI)” value under setting [9] is “— (Only SI equal or greater than 3 are shown.)”. Under setting [10], the “lymphoproliferative response (LPR)” value is “+ (significant when it induces SI's 3 in at least half of the assays performed)”.

The values are drawn from patent publication US6555114B1, “Immunodominant human T-cell epitopes of hepatitis C virus” (Innogenetics N.V., priority 1993, dated 2003).
